Usually inhibition stands for the change of the read-out against control, counted positive when it falls. The term LD50 denotes the dose expected to kill half of the subjects tested. Low values mean greater toxicity, high ones lower toxicity.

The values that follow come from US9089499B2, “Para-coumaric acid or para-hydroxycinnamic acid derivatives and their use in cosmetic or dermatological compositions” (BASF Beauty Care Solutions France S.A.S., priority 2005, dated 2015).

A value given as a limit tells only on which side of the number the result lay.

The subject of one data set is skin of rabbits. The data set is described as follows: Primary skin irritation in rabbits. The class given is in vivo. The note with it: 10% in a 0.5% xanthan gel; undiluted, 0.5 ml to the skin of rabbits. As to the method:
The preparations described above are applied without dilution at a dose of 0.5 ml to the skin of 3 rabbits according to the method recommended by the OCDE Directive concerning the study of “the acute irritant/corrosive effect on the skin”. The products are classified according to the criteria defined by the decree of 1/2/1982 published in the JORF of 21/02/82.

A further data set has as its target T1, Human tyrosinase (Homo sapiens, UniProt P14679).
T1 construct: endogenous in cells; host or cells: normal human melanocytes (abdominal surgery; several donors of fair, brown and black phototypes)
T1 sequence (P14679 19-529): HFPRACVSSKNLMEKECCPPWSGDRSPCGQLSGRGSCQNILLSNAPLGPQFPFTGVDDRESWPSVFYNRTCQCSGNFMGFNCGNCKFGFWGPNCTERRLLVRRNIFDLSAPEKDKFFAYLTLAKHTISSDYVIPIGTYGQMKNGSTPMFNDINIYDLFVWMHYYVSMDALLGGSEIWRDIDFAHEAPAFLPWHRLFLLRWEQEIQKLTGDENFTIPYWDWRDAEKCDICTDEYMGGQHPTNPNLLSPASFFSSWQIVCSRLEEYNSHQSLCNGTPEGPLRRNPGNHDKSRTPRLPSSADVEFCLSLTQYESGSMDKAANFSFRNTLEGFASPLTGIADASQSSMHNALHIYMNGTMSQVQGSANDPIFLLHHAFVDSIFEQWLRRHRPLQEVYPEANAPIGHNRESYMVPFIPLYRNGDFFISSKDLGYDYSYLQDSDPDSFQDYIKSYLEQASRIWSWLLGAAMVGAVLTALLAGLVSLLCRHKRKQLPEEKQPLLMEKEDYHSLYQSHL
The data set is described as follows: In vitro test of inhibition of human tyrosinase from melanocyte extracts (L-dopa/MBTH, OD 490 nm). It is filed as biochemical. The following applies: melanocyte extract. As for the experimental part: Human tyrosinase, obtained from melanocyte extracts obtained from healthy donors, catalyses the formation of L-dopaquinone from L-dopa. Now, the L-dopaquinone may be quantified by visible spectrophotometry at 490 nm by means of a chromogen: 3-methyl-2-benzothiazolinone hydrazone (MBTH).
The melanocyte extract is obtained after lysis of cell membranes of the normal human melanocytes, performed via a thermal shock. The supernatant is recovered and then incubated with MBTH (Sigma) and L-dopa (Sigma). […]

The subject of the next data set is rats. The data set is described as follows: in vivo. The following applies: both, rat, po. As for the experimental part: (§1) The toxicology tests were performed on the compound obtained according to Example 1 incorporated at 10% into a 0.5% xanthan gel, by ocular evaluation on rabbits, by studying the absence of abnormal toxicity via single oral administration to rats, and by studying the sensitizing power on guinea pigs.
(§2) The preparations described were administered in a single portion orally at a dose of 2 g/kg of body weight, to 5 male rats and 5 female rats according to a protocol inspired by the OCDE Directive No. 401 of 24 February 1987 and adapted to cosmetic products.

The next data set is described as follows: in vivo. The following applies: both, rat, po. As for the experimental part: as §1, §2

With `COc1cc(/C=C/C(=O)NCCc2ccc(O)c(O)c2)ccc1O` [Example 1, N-trans-feruloyldopamine], the “Primary skin irritation classification” value in the data set on skin of rabbits is on record as “non-irritant to the skin”. Further, the inhibition at 100 µM at Human tyrosinase (10^−4M, read-out: Inhibition of human tyrosinase, percentage of inhibition, Mean 10^−4M) came out at 0%. The inhibition at 10 µM on Human tyrosinase (10^−5M, read-out: Inhibition of human tyrosinase, percentage of inhibition, Mean 10^−5M) worked out at 0%. Also, the LD0 result in the data set with rats is listed as “greater than 2000 mg/kg”. Moreover, in the data set “in vivo”, the LD50 was above 2000 mg/kg.
